From patent publication US20230257396A1, “MACROCYCLES AND THEIR USE” (BLOSSOMHILL THERAPEUTICS, INC., priority 2020, published 2023)
Changes are numbered by the printed parent chain.

How the values were obtained:
Test in all cases: KINOMEscan kinase binding assay (Eurofins/DiscoveRx), % Ctrl
kinases [1] = target: T1, kinases (Homo sapiens, UniProt P00533, L858R/T790M)
T1 construct: purchased Eurofins/DiscoveRx; host or cells: E. coli BL21-derived host (T7 phage display) for most kinases; HEK-293 for the rest
Outline: (§1)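 Read-out is qPCR of kinase eluted from ligand-coated streptavidin beads after 1 h room-temperature competition with test compound. Values are % Ctrl at the tested concentration, lower meaning tighter binding.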

kinases [2] = target: T2, kinases (Homo sapiens, UniProt P36888)
T2 construct: purchased Eurofins/DiscoveRx; host or cells: E. coli BL21-derived host (T7 phage display) for most kinases; HEK-293 for the rest
T2 sequence (P36888 27-993): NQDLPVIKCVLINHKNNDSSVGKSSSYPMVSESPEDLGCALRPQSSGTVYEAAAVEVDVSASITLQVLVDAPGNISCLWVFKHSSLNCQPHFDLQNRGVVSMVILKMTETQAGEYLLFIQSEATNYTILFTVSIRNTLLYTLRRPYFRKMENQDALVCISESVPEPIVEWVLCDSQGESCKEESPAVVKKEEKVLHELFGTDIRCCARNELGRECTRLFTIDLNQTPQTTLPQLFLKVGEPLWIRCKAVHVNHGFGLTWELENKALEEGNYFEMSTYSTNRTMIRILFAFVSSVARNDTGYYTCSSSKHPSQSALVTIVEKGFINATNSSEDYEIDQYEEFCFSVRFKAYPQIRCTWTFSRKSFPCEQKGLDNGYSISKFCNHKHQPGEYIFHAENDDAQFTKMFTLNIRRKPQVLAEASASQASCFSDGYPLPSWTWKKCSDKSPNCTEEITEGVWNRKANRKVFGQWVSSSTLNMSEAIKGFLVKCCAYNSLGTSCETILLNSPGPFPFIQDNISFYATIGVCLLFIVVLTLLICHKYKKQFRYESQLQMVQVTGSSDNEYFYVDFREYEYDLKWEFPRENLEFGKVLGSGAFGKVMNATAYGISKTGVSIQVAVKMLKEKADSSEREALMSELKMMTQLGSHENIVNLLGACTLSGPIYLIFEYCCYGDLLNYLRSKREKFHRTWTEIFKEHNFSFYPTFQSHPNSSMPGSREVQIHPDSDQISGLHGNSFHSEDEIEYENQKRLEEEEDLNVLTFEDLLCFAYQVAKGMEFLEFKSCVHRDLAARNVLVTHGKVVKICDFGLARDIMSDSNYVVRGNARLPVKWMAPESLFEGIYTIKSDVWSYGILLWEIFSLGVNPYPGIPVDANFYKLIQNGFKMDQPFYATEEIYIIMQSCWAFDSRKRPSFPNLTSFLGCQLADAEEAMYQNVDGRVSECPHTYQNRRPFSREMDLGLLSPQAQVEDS
Outline: as §1

kinases [3] = target: T3, kinases (Homo sapiens, UniProt P10721, D816V)
T3 construct: purchased Eurofins/DiscoveRx; host or cells: E. coli BL21-derived host (T7 phage display) for most kinases; HEK-293 for the rest
Outline: as §1

kinases [4] = target: T4, kinases (Homo sapiens, UniProt P42684)
T4 construct: purchased Eurofins/DiscoveRx; host or cells: E. coli BL21-derived host (T7 phage display) for most kinases; HEK-293 for the rest
Outline: as §1

kinases [5] = target: T5, kinases (Homo sapiens, UniProt P10721)
T5 construct: purchased Eurofins/DiscoveRx; host or cells: E. coli BL21-derived host (T7 phage display) for most kinases; HEK-293 for the rest
Outline: as §1

kinases [6] = target: T6, kinases (Homo sapiens, UniProt P36888, K663Q)
T6 construct: purchased Eurofins/DiscoveRx; host or cells: E. coli BL21-derived host (T7 phage display) for most kinases; HEK-293 for the rest
T6 sequence (P36888 27-993 K663Q): T2 sequence (P36888 27-993) with K637Q
Outline: as §1

[7] = target EGFR(L858R, T790M); 1 μM
[8] = target FLT3-autoinhibited; 1 μM
[9] = 1 μM; target EGFR(L858R, T790M)
[10] = 1 μM; target FLT3-autoinhibited

T3 sequence (P10721 26-976 D816V): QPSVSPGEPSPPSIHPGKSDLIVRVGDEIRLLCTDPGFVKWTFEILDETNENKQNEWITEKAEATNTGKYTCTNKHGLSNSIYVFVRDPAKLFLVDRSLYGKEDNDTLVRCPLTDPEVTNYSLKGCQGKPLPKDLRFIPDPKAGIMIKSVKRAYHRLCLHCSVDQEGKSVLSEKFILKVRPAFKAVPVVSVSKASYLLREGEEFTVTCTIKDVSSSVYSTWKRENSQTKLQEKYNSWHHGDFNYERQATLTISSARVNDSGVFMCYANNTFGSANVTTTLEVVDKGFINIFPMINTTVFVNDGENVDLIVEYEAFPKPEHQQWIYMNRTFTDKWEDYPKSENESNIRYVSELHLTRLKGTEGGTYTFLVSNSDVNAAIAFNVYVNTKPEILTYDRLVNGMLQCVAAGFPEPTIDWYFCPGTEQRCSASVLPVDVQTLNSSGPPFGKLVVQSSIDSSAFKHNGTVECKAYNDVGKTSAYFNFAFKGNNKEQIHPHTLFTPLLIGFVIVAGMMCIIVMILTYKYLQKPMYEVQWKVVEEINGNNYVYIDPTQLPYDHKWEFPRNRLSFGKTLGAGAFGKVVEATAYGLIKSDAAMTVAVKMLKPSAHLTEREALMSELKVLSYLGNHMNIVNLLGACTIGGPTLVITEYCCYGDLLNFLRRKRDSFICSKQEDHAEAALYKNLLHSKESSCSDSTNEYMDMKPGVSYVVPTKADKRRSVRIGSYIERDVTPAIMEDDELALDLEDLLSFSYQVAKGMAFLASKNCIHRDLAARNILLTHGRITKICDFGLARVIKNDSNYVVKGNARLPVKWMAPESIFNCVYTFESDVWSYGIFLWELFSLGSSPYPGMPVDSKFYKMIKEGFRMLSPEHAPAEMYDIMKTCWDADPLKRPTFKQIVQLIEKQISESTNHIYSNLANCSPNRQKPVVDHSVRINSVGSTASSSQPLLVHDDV
T4 sequence (P42684 whole entry): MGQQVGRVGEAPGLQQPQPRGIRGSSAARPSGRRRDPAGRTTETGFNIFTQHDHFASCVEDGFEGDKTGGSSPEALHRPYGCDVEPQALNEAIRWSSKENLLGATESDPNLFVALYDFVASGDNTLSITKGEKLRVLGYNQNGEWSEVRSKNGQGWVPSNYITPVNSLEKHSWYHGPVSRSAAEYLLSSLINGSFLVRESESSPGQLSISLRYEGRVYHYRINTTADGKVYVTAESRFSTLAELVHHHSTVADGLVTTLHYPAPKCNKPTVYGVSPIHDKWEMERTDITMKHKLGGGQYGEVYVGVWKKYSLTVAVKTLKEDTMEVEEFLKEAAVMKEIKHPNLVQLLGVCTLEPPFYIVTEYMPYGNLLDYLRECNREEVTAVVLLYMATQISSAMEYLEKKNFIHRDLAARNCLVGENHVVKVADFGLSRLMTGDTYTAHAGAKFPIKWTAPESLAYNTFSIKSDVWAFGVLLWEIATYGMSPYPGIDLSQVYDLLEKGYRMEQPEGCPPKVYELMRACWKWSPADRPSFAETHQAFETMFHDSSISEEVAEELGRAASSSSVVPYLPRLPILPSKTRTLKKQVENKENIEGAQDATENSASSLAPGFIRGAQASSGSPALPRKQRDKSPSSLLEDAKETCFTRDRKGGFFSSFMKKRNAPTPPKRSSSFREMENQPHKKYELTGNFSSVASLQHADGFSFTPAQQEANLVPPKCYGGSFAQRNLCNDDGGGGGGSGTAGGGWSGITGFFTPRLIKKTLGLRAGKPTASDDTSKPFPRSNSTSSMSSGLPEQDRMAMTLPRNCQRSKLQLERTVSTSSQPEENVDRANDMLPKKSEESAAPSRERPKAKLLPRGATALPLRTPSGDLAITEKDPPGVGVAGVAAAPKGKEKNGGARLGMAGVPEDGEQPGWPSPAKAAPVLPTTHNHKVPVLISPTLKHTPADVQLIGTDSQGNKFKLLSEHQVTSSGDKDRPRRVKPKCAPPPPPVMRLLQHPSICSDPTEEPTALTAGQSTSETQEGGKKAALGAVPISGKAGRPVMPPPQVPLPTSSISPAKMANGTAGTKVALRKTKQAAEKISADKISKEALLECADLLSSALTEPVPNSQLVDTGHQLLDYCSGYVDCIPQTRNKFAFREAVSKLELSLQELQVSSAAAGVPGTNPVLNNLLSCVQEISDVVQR
T5 sequence (P10721 26-976): as the sequence (P10721 26-976 D816V) above, with V791D counted along it

SMILES	% Ctrl, EGFR(L858R, T790M) (kinases [1]; 1 μM; EGFR(L858R, T790M)) [% Ctrl]	% Ctrl, FLT3 (kinases [2]; 1 μM; FLT3) [% Ctrl]	% Ctrl, FLT3-autoinhibited (kinases [2]; 1 μM; FLT3-autoinhibited) [% Ctrl]	% Ctrl, KIT(D816V) (kinases [3]; 1 μM; KIT(D816V)) [% Ctrl]	% Ctrl, ABL2 (kinases [4]; 1 μM; ABL2) [% Ctrl]	% Ctrl, KIT (kinases [5]; 1 μM; KIT) [% Ctrl]	% Ctrl, KIT-autoinhibited (kinases [5]; 1 μM; KIT-autoinhibited) [% Ctrl]	% Ctrl, FLT3(K663Q) (kinases [6]; 1 μM; FLT3(K663Q)) [% Ctrl]	also measured
Cc1cc2c([nH]1)/C=C1\C(=O)Nc3ccc(cc31)-c1cnn(C)c1CNCCN(C)C2=O [Ex. 125, [3a(4)Z]-6,9,14-trimethyl-9,10,11,12,13,14-hexahydro-1,17-(ethanediylidene)pyrazolo[4,3-m]dipyrrolo[3,2-f:3′,4′-i][1,4]diazacyclopentadecine-3,8(2H,5H)-dione]	1.2	0.45	0.15	0.5	2.2	42	95	1.4	–
Cc1cc2c([nH]1)/C=C1\C(=O)Nc3cc(Cl)c(cc31)OCCO[C@@H](C(=O)N1CCN(C)CC1)CN(C)C2=O [Ex. 138, [7R,16a(17)Z]-19-chloro-2,5-dimethyl-7-(4-methylpipearazine-1-carbonyl)-6,7,9,10-tetrahydro-1H-12,14-(ethanediylidene)dipyrrolo[3,2-i:3′,4′-l][1,4,7]dioxazacyclopentadecine-4,16(5H,15H)-dione]	–	–	–	–	–	–	–	–	% Ctrl, EGFR(L858R, T790M) (kinases [1]; [7]): 82 % Ctrl; % Ctrl, FLT3-autoinhibited (kinases [2]; [8]): 76 % Ctrl; % Ctrl, FLT3 (kinases [2]; target FLT3; 1 μM): 77 % Ctrl; % Ctrl, KIT(D816V) (kinases [3]; target KIT(D816V); 1 μM): 100 % Ctrl; % Ctrl, ABL2 (kinases [4]; target ABL2; 1 μM): 98 % Ctrl; % Ctrl, KIT-autoinhibited (kinases [5]; target KIT-autoinhibited; 1 μM): 96 % Ctrl; % Ctrl, KIT (kinases [5]; target KIT; 1 μM): 90 % Ctrl; % Ctrl, FLT3(K663Q) (kinases [6]; target FLT3(K663Q); 1 μM): 95 % Ctrl
Cc1cc2c([nH]1)/C=C1\C(=O)Nc3cc(Cl)c(cc31)OCCO[C@@H](C(=O)NC1CNC1)CN(C)C2=O [Ex. 133, [7R,16a(17)Z]-N-(azetidin-3-yl)-19-chloro-2,5-dimethyl-4,16-dioxo-4,5,6,7,9,10,15,16-octahydro-1H-12,14-(ethanediylidene)dipyrrolo[3,2-i:3′,4′-l][1,4,7]dioxazacyclopentadecine-7-carboxamide]	95	48	95	34	96	65	75	77	–
Cc1cc2c([nH]1)/C=C1\C(=O)Nc3ccc(cc31)-c1cnn(C)c1COCCN(C)C2=O [Ex. 124, [3a(4)Z]-6,9,14-trimethyl-10,11,13,14-tetrahydro-2H-1,17-(ethanediylidene)pyrazolo[4,3-m]dipyrrolo[3,2-f:3′,4′-i][1,4]oxazacyclopentadecine-3,8(5H,9H)-dione]	1.7	0.15	0.35	0.7	2.4	45	93	13	–
CN1CCOc2cc3c(cc2Cl)NC(=O)/C3=C\c2[nH]ccc2C(=O)N(C)CC1 [Ex. 164, [16a(17)Z]-19-chloro-2,5,8-trimethyl-5,6,7,8,9,10-hexahydro-12,14-(ethanediylidene)dipyrrolo[3,2-i:3′,4′-l][1,4,7]oxadiazacyclopentadecine-4,16(1H,15H)-dione]	–	–	–	–	–	–	–	–	% Ctrl, EGFR(L858R, T790M) (kinases [1]; [9]): 80 % Ctrl; % Ctrl, FLT3 (kinases [2]; 1 μM; target FLT3): 2.5 % Ctrl; % Ctrl, FLT3-autoinhibited (kinases [2]; [10]): 63 % Ctrl; % Ctrl, KIT(D816V) (kinases [3]; 1 μM; target KIT(D816V)): 3.3 % Ctrl; % Ctrl, ABL2 (kinases [4]; 1 μM; target ABL2): 2.3 % Ctrl; % Ctrl, KIT (kinases [5]; 1 μM; target KIT): 18 % Ctrl; % Ctrl, KIT-autoinhibited (kinases [5]; 1 μM; target KIT-autoinhibited): 81 % Ctrl; % Ctrl, FLT3(K663Q) (kinases [6]; 1 μM; target FLT3(K663Q)): 1.4 % Ctrl
Cc1cc2c([nH]1)/C=C1\C(=O)Nc3cc(Cl)c(cc31)SCCOCCN(C)C2=O [Ex. 169, [16a(17)Z]-19-chloro-5-methyl-6,7,9,10-tetrahydro-1H-12,14-(ethanediylidene)dipyrrolo[3,4-g:2′,3′-j][1,4,13]oxathiazacyclopentadecine-4,16(5H,15H)-dione]	–	–	–	–	–	–	–	–	% Ctrl, EGFR(L858R, T790M) (kinases [1]; [9]): 37 % Ctrl; % Ctrl, FLT3 (kinases [2]; 1 μM; target FLT3): 1.8 % Ctrl; % Ctrl, FLT3-autoinhibited (kinases [2]; [10]): 12 % Ctrl; % Ctrl, KIT(D816V) (kinases [3]; 1 μM; target KIT(D816V)): 1.6 % Ctrl; % Ctrl, ABL2 (kinases [4]; 1 μM; target ABL2): 0.3 % Ctrl; % Ctrl, KIT (kinases [5]; 1 μM; target KIT): 7.5 % Ctrl; % Ctrl, KIT-autoinhibited (kinases [5]; 1 μM; target KIT-autoinhibited): 25 % Ctrl; % Ctrl, FLT3(K663Q) (kinases [6]; 1 μM; target FLT3(K663Q)): 2.7 % Ctrl
Cc1cc2c([nH]1)/C=C1\C(=O)Nc3ccc(cc31)-c1ccnn1CCOCCNC2=O [Ex.39, [19a(20)Z]-2-methyl-6,7,9,10-tetrahydro-1H-15,17-(ethanediylidene)pyrazolo[1,5-d]dipyrrolo[3,4-h:2′,3′-k][1,4,14]oxadiazacyclohexadecine-4,19(5H,18H)-dione]	90	100	85	91	89	90	86	100	–
Cc1cc2c([nH]1)/C=C1\C(=O)Nc3cnc(cc31)-c1cn[nH]c1CNCCN(C)C2=O [Ex. 55, [3a(4)Z]-6,9-dimethyl-9,10,11,12,13,14-hexahydro-17,1-(azenometheno)pyrazolo[4,3-m]dipyrrolo[3,2-f:3′,4′-i][1,4]diazacyclopentadecine-3,8(2,5H)-dione]	–	–	–	–	–	–	–	–	% Ctrl, EGFR(L858R, T790M) (kinases [1]; [7]): 35 % Ctrl; % Ctrl, FLT3-autoinhibited (kinases [2]; [8]): 10 % Ctrl; % Ctrl, FLT3 (kinases [2]; target FLT3; 1 μM): 11 % Ctrl; % Ctrl, KIT(D816V) (kinases [3]; target KIT(D816V); 1 μM): 1.3 % Ctrl; % Ctrl, ABL2 (kinases [4]; target ABL2; 1 μM): 58 % Ctrl; % Ctrl, KIT-autoinhibited (kinases [5]; target KIT-autoinhibited; 1 μM): 39 % Ctrl; % Ctrl, KIT (kinases [5]; target KIT; 1 μM): 74 % Ctrl; % Ctrl, FLT3(K663Q) (kinases [6]; target FLT3(K663Q); 1 μM): 1.2 % Ctrl
Cc1cc2c([nH]1)/C=C1\C(=O)Nc3cc(Cl)c(cc31)OCCO[C@@H](C(=O)N[C@@H]1CCNC1)CN(C)C2=O [Ex. 136, [7R,16a(17)Z]-19-chloro-2,5-dimethyl-4,16-dioxo-N-[(3R)-pyrrolidin-3-yl]-4,5,6,7,9,10,15,16-octahydro-1H-12,14-(ethanediylidene)dipyrrolo[3,2-i:3′,4′-l][1,4,7]dioxazacyclopentadecine-7-carboxamide]	93	36	97	36	77	49	83	64	–
